Experiment: xn = mol fraction of the nth substance listed
Settings: 101 kPa, Liquid; for viscosity: Falling or rolling sphere viscometry; for speed of sound: Frequency=3 MHz, Sing-around technique in a fixed-path interferometer; for mass density: Vibrating tube method

CCCCCC[n+]1ccn(C)c1.O=S(=O)([N-]S(=O)(=O)C(F)(F)F)C(F)(F)F + CCCO
Settings	mass density [kg/m3]	speed of sound [m/s]	viscosity [mPa·s]
278.15 K, x1 = 0.048	920.02	1255.6	4.973
278.15 K, x1 = 0.0991	1003.18	1246.2	7.263
278.15 K, x1 = 0.1928	1109.95	1243.7	13.14
278.15 K, x1 = 0.2895	1184.1	1246.9	20.71
278.15 K, x1 = 0.3911	1239.44	1252	30.93
278.15 K, x1 = 0.4877	1278.76	1256.3	44.03
278.15 K, x1 = 0.6028	1314.62	1261.3	63.47
278.15 K, x1 = 0.6999	1338.53	1265.1	87.45
278.15 K, x1 = 0.8016	1359.18	1268.5	117.11
278.15 K, x1 = 0.8999	1375.88	1271.5	155.87
298.15 K, x1 = 0.048	903.08	1191.5	2.872
298.15 K, x1 = 0.0991	985.65	1186	3.917
298.15 K, x1 = 0.1928	1091.69	1187.7	6.538
298.15 K, x1 = 0.2895	1165.51	1193.5	9.707
298.15 K, x1 = 0.3911	1220.7	1200.4	13.78
298.15 K, x1 = 0.4877	1259.96	1205.8	18.59
298.15 K, x1 = 0.6028	1295.83	1211.8	25.71
298.15 K, x1 = 0.6999	1319.79	1216.2	33.17
298.15 K, x1 = 0.8016	1340.46	1220.1	42.83
298.15 K, x1 = 0.8999	1357.18	1223.3	54.58
318.15 K, x1 = 0.048	885.86	1129.7	1.799
318.15 K, x1 = 0.0991	967.85	1128.2	2.374
318.15 K, x1 = 0.1928	1073.33	1134	3.734
318.15 K, x1 = 0.2895	1146.9	1142.4	5.367
318.15 K, x1 = 0.3911	1202.04	1151	7.383
318.15 K, x1 = 0.4877	1241.33	1157.7	9.855
318.15 K, x1 = 0.6028	1277.27	1164.8	13.26
318.15 K, x1 = 0.6999	1301.3	1169.8	16.47
318.15 K, x1 = 0.8016	1322.04	1174.3	20.58
318.15 K, x1 = 0.8999	1338.82	1178.1	25.19
338.15 K, x1 = 0.048	868.04	1069.2	1.203
338.15 K, x1 = 0.0991	949.6	1071.6	1.565
338.15 K, x1 = 0.1928	1054.71	1081.8	2.399
338.15 K, x1 = 0.2895	1128.21	1092.8	3.401
338.15 K, x1 = 0.3911	1183.4	1103.3	4.568
338.15 K, x1 = 0.4877	1222.81	1111.4	5.928
338.15 K, x1 = 0.6028	1258.9	1119.7	7.803
338.15 K, x1 = 0.6999	1283.03	1125.6	9.596
338.15 K, x1 = 0.8016	1303.87	1130.8	11.71
338.15 K, x1 = 0.8999	1320.72	1135.3	13.92

From the NIST ThermoML archive (doi:10.1021/acs.jced.5b00181)
